Consider four molecules from ChEMBL document CHEMBL1147313, “Abrusosides A-D, four novel sweet-tasting triterpene glycosides from the leaves of Abrus precatorius” (J Nat Prod, 1989).

Molecules are shown by their SMILES.

This data set has as its system Mus musculus. As to the kind of experiment: Acute toxicity in Swiss-Webster mouse at 1 g/kg, po. It counts as organism-based. Conditions: in vivo, 1000 mg/kg.
Take `CC1=CC[C@@H]([C@@H](C)[C@H]2CC[C@@]3(C)[C@@H]4CC[C@H]5[C@](C)(C(=O)O)[C@@H](O[C@@H]6O[C@H](CO)[C@@H](O)[C@H](O)[C@H]6O[C@@H]6O[C@H](CO)[C@@H](O)[C@H](O)[C@H]6O)CC[C@@]56C[C@@]46CC[C@]23C)OC1=O` [ABRUSOSIDE C]: the Activity entry was “Non-toxic”. Under `CC1=CC[C@@H]([C@@H](C)[C@H]2CC[C@@]3(C)[C@@H]4CC[C@H]5[C@](C)(C(=O)O)[C@@H](O[C@@H]6O[C@H](CO)[C@@H](O)[C@H](O)[C@H]6O)CC[C@@]56C[C@@]46CC[C@]23C)OC1=O` [ABRUSOSIDE A] stands “Non-toxic”; under `COC(=O)[C@H]1O[C@@H](O[C@H]2[C@H](O[C@H]3CC[C@]45C[C@]46CC[C@]4(C)[C@@H]([C@H](C)[C@@H]7CC=C(C)C(=O)O7)CC[C@@]4(C)[C@@H]6CC[C@H]5[C@]3(C)C(=O)O)O[C@H](CO)[C@@H](O)[C@@H]2O)[C@H](O)[C@@H](O)[C@@H]1O` [ABRUSOSIDE B], “Non-toxic”. For `CC1=CC[C@@H]([C@@H](C)[C@H]2CC[C@@]3(C)[C@@H]4CC[C@H]5[C@](C)(C(=O)O)[C@@H](O[C@@H]6O[C@H](CO)[C@@H](O)[C@H](O)[C@H]6O[C@@H]6O[C@H](C(=O)O)[C@@H](O)[C@H](O)[C@H]6O)CC[C@@]56C[C@@]46CC[C@]23C)OC1=O` [ABRUSOSIDE D] the value was “Non-toxic”.
